Reference: the supplement of paper PMC10307832

Experiments:
Assay in all cases: relative viability (nuclei count vs DMSO), 5 days (fraction); higher = more cells survive
[1] = compound: NC(=O)c1ccc(N(C(N)=O)c2c(F)cccc2F)nc1-c1ccc(F)cc1F [VX-702] + CS(=O)(=O)CCNCc1ccc(-c2ccc3ncnc(Nc4ccc(OCc5cccc(F)c5)c(Cl)c4)c3c2)o1 [Lapatinib] (partner 2 µM)
Procedure, shortened: (§1)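 Values are medians from duplicate plates. Each reflects relative viability, defined as the nuclei count of treated wells over that of vehicle wells. Lung cancer cell lines in 1536-well plates were pin-tool dosed one day after seeding with one drug alone or with a fixed anchor-drug dose plus five library-drug doses (not always all listed) in √10 steps, then fixed, stained and imaged at 4× after 5 days.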

[2] = compound: CC(C)(C)c1nc(-c2cccc(NS(=O)(=O)c3c(F)cccc3F)c2F)c(-c2ccnc(N)n2)s1 [Dabrafenib] + N=C(N)NC(=N)NCCc1ccccc1 [Phenformin] (partner 250 µM)
Procedure, shortened: as §1

[3] = compound: NC(=O)c1ccc(N(C(N)=O)c2c(F)cccc2F)nc1-c1ccc(F)cc1F [VX-702] + CC(C)C[C@H](NC(=O)[C@H](Cc1ccccc1)NC(=O)c1cnccn1)B(O)O [Bortezomib] (partner 0.002 µM)
Procedure, shortened: as §1

[4] = compound: CC(C)(C)c1nc(-c2cccc(NS(=O)(=O)c3c(F)cccc3F)c2F)c(-c2ccnc(N)n2)s1 [Dabrafenib] + Cc1cc(Nc2cc(N3CCN(C)CC3)nc(Sc3ccc(NC(=O)C4CC4)cc3)n2)n[nH]1 [Tozasertib] (partner 0.1 µM)
Procedure, shortened: as §1

Row | Cell Line | relative viability ([1]; first compound 0.02 µM) | relative viability ([1]; first compound 0.2 µM) | relative viability ([1]; first compound 0.6325 µM) | relative viability ([1]; first compound 2 µM) | relative viability ([2]; first compound 0.003 µM) | relative viability ([2]; first compound 0.009487 µM) | relative viability ([2]; first compound 0.03 µM) | relative viability ([2]; first compound 0.09487 µM) | relative viability ([2]; first compound 0.3 µM) | relative viability ([3]; first compound 0.02 µM) | relative viability ([3]; first compound 0.2 µM) | relative viability ([3]; first compound 0.6325 µM) | relative viability ([3]; first compound 2 µM) | relative viability ([4]; first compound 0.003 µM) | relative viability ([4]; first compound 0.009487 µM) | relative viability ([4]; first compound 0.03 µM) | relative viability ([4]; first compound 0.09487 µM) | relative viability ([4]; first compound 0.3 µM)
1 | NCI-H838 | 1.06 | 1.01 | 1.13 | 1.35 | 0.564 | 0.648 | 0.451 | 0.566 | 0.625 | 0.857 | 0.94 | 0.796 | 0.937 | 0.29 | 0.34 | 0.239 | 0.255 | 0.258
2 | NCI-H2087 | 1.28 | 1.1 | 1.1 | 1.16 | – | 0.527 | 0.597 | 0.395 | 0.391 | 0.824 | 0.889 | 0.818 | 0.914 | – | 0.306 | 0.254 | 0.302 | 0.264
3 | NCI-H596 | 1.09 | 1.01 | 1.13 | 1.1 | – | 1.11 | 0.65 | 0.687 | 0.748 | 1.2 | 0.963 | 0.962 | 1.25 | – | 0.781 | 0.826 | 0.821 | 0.977
4 | HCC-827 | 0.181 | 0.191 | 0.19 | 0.152 | 0.31 | 0.447 | 0.354 | – | 0.385 | 0.966 | 1.03 | 0.997 | 0.541 | 0.426 | 0.457 | 0.383 | – | 0.377
5 | NCI-H1755 | 1.08 | 1.02 | 1.09 | 1.09 | 0.565 | 0.627 | 0.544 | 0.591 | 0.629 | 0.964 | 0.911 | 1.07 | 0.979 | 0.555 | 0.659 | 0.539 | 0.559 | 0.614
6 | SK-LU-1 | 1.09 | 0.885 | 0.887 | 1.29 | – | 0.571 | 0.326 | 0.47 | 0.373 | 1.15 | – | 1.19 | 1.8 | – | 0.365 | 0.255 | 0.311 | 0.332
7 | NCI-H2347 | 0.996 | 0.813 | 0.891 | 0.902 | – | 0.461 | 0.229 | 0.382 | 0.352 | 0.995 | 0.83 | 1.02 | 1.13 | – | 0.548 | 0.344 | 0.621 | 0.496
8 | NCI-H2023 | 0.729 | 0.504 | 0.712 | 0.977 | 0.4 | 0.406 | 0.419 | 0.423 | 0.443 | 0.862 | 0.946 | 1.06 | 0.947 | 0.376 | 0.382 | 0.35 | 0.321 | 0.356
9 | NCI-H2126 | 0.752 | 0.763 | 0.74 | 0.824 | 0.521 | 0.551 | 0.557 | 0.601 | 0.565 | 1.11 | 1.06 | 1.11 | 1.25 | 0.809 | 0.865 | 0.858 | 0.862 | 0.882
10 | SW 1573 | 1.05 | 1.13 | 1.05 | 0.919 | 0.371 | 0.445 | 0.324 | 0.465 | 0.541 | 1.02 | 0.902 | 0.871 | 1 | 0.284 | 0.233 | 0.191 | 0.19 | 0.241
11 | EPLC-272H | 1.09 | 0.751 | 1.1 | 1.59 | 0.211 | 0.331 | 0.406 | 0.267 | 0.332 | 0.897 | 0.836 | 1.05 | 0.956 | 0.345 | 0.326 | 0.33 | 0.273 | 0.256
12 | NCI-H1651 | 1.04 | 0.929 | 0.847 | 0.963 | 0.35 | 0.352 | 0.293 | 0.353 | 0.347 | 0.958 | 0.96 | 0.95 | 1.03 | 0.741 | 0.763 | 0.57 | 0.668 | 0.679
13 | NCI-H23 | 1.12 | 1.01 | 1.04 | 1.25 | – | 0.816 | 0.762 | 0.51 | 0.687 | 1.07 | 0.892 | 1.22 | 1.16 | – | 0.431 | 0.344 | 0.337 | 0.375
14 | NCI-H727 | 0.88 | 0.671 | 0.818 | 0.911 | – | 0.425 | 0.515 | – | 0.595 | 0.657 | 0.743 | 0.939 | 0.976 | – | 0.754 | 0.654 | 0.667 | 0.793
15 | NCI-H1993 | 0.811 | 0.827 | 0.827 | 0.743 | 0.33 | 0.536 | 0.482 | 0.446 | 0.513 | 0.841 | 1.01 | 0.992 | 1.01 | 0.484 | 0.586 | 0.504 | 0.571 | 0.606
16 | NCI-H2405 | 1.23 | 0.761 | 1.02 | 1.46 | – | 0.286 | – | 0.37 | 0.371 | 1.04 | 0.604 | 0.702 | 0.977 | – | 0.799 | – | 0.647 | 0.726
17 | NCI-H661 | 0.498 | 0.445 | 0.505 | 0.624 | 0.256 | 0.277 | 0.268 | 0.323 | 0.306 | 0.731 | 0.731 | 1.11 | 1.21 | 0.344 | 0.364 | 0.372 | 0.38 | 0.352
18 | HCC-366 | 1.03 | 1.15 | 1.23 | 0.791 | 0.325 | 0.672 | 0.539 | 0.483 | 0.612 | 1.01 | 0.969 | 1.12 | 0.634 | 0.088 | 0.187 | 0.0643 | 0.104 | 0.0995
